In patent publication US20140005163A1 (NOVARTIS AG, priority 2010, published 2014):
≈ marks a conversion by molar mass, not a printed value.

Legend:
Solubility at pH 6.8 = type: physicochemical; details: pH 6.8, aqueous buffer, thermodynamic from solid; read-out: solubility
Outline: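 Following the procedure of Zhou et al. (2007), compound solubility was determined at pH 6.8.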

PI3K delta = biological target: T1, PI3K delta (Homo sapiens, UniProt O00329); experiment: PI3K delta kinase assay (Kinase-Glo luminescence); type: biochemical
T1 construct: for the full-length p110-d subunit are generated and fused by overlapping PCR; p85(iSH2) fusion partner (see partner chain) (N); His tag (C); made in house; host or cells: baculovirus; Tn5 (Trichoplusia ni) or TiniPro insect cells
Outline: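 Recombinant p85(iSH2)-Gly linker-p110δ full-length construct (BV1060, C-terminal His tag) was used at 10 nM with 10 μg/mL phosphatidylinositol and 1 μM ATP in 10 mM Tris-HCl pH 7.5, 3 mM MgCl2, 50 mM NaCl, 0.05% CHAPS, 1 mM DTT. After 60 min at room temperature, remaining ATP was measured by Kinase-Glo luminescence.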

[1] = tested on: PKB Ser473 phosphorylation in Rat1-myr-HA-p110 alpha cells; experiment: Reverse protein array assay, PKB Ser473 phosphorylation in Rat1-myr-p110 alpha cells; type: cell-based; details: 0.5 h, pAkt Ser473, 30 minutes compound incubation, read-out: p-PKB IC50
Outline: (§1)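 Rat1 cells expressing myristoylated HA-tagged p110 alpha, beta or delta were plated for at least 20 h, then exposed to 8-step serial compound dilutions (0.2% DMSO final) for 30 min at 37 °C. Lysates were spotted at four dilutions on protein microarrays, and relative fluorescence intensity of phospho-Ser473 PKB was calculated.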

[2] = tested on: PKB Ser473 phosphorylation in Rat1-myr-HA-p110 beta cells; experiment: Reverse protein array assay, PKB Ser473 phosphorylation in Rat1-myr-p110 beta cells; type: cell-based; details: 0.5 h, pAkt Ser473, 30 minutes incubation, read-out: p-PKB IC50
Outline: as §1

[3] = tested on: PKB Ser473 phosphorylation in Rat1-myr-HA-p110 delta cells; experiment: Reverse protein array assay, PKB Ser473 phosphorylation in Rat1-myr-p110 delta cells; type: cell-based; details: read-out: p-PKB IC50
Outline: as §1

T1 sequence (O00329 with tags, fused parts or gaps limits assumed): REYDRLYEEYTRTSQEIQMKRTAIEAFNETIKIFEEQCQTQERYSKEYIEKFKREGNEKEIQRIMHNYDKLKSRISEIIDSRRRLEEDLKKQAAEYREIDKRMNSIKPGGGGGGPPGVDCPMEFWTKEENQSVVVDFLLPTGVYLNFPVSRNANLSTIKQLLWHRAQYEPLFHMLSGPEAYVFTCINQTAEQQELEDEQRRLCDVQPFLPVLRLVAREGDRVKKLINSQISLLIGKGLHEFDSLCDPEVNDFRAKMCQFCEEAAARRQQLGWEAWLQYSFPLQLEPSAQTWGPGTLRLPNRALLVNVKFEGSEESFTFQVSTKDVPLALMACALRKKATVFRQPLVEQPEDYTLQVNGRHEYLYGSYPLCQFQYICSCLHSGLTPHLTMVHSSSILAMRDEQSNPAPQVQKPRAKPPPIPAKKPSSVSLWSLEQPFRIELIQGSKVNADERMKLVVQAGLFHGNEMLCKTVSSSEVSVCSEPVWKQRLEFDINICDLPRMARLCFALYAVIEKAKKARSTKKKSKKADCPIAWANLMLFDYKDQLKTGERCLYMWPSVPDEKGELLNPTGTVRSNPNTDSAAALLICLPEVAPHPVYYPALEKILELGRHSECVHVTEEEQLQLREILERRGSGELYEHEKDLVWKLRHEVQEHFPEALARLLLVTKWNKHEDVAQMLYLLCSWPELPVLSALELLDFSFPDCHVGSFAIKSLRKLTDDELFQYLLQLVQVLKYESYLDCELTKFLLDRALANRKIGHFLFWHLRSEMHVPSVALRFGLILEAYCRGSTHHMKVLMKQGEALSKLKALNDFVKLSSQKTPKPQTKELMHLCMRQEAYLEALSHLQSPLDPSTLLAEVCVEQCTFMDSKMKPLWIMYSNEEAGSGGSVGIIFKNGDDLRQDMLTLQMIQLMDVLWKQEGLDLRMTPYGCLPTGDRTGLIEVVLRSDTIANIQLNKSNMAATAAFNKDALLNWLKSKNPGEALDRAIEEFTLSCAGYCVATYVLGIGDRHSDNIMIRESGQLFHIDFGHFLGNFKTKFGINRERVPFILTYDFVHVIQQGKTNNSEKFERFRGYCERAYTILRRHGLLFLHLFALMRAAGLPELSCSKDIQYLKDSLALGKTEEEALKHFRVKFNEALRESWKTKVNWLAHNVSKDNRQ

SMILES | solubility (Solubility at pH 6.8) | IC50 (PI3K delta) | IC50 [1] | IC50 [2] | IC50 [3]
COc1ccc(-c2ccc3ncc4c(c3c2)n(-c2cc(C)nn2C)c(=O)n4C)cc1OC [Example 1.4, 8-(3,4-Dimethoxy-phenyl)-1-(2,5-dimethyl-2H-pyrazol-3-yl)-3-methyl-1,3-dihydro-imidazo[4,5-c]quinolin-2-one] | 4 µg/mL (≈ 9.31 µM) | 83 nM | 22 nM | 157 nM | 131 nM
COc1ccc(-c2ccc3ncc4c(c3c2)n(-c2cn(C(C)C)nc2C)c(=O)n4C)cc1OC [Example 1.5, 8-(3,4-Dimethoxy-phenyl)-1-(1-isopropyl-3-methyl-1H-pyrazol-4-yl)-3-methyl-1,3-dihydro-imidazo[4,5-c]quinolin-2-one] | 5 µg/mL (≈ 10.9 µM) | 7 nM | 16 nM | 23 nM | 50 nM
CCn1cc(-n2c(=O)n(C)c3cnc4ccc(-c5ccc(OC)c(OC)c5)cc4c32)c(C)n1 [Example 1.6, 8-(3,4-Dimethoxy-phenyl)-1-(1-ethyl-3-methyl-1H-pyrazol-4-yl)-3-methyl-1,3-dihydro-imidazo[4,5-c]quinolin-2-one] | 65 µg/mL (≈ 147 µM) | 11 nM | 10 nM | 22 nM | 30 nM
COc1ccc(-c2ccc3ncc4c(c3c2)n(-c2cn(C)nc2C)c(=O)n4C)cn1 [Example 2.5, 1-(1,3-Dimethyl-1H-pyrazol-4-yl)-8-(6-methoxy-pyridin-3-yl)-3-methyl-1,3-dihydro-imidazo[4,5-c]quinolin-2-one] | 13 µg/mL (≈ 32.5 µM) | 10 nM | 18 nM | 18 nM | 36 nM
CCn1cc(-n2c(=O)n(C)c3cnc4ccc(-c5ccc(OC)nc5)cc4c32)c(C)n1 [Example 2.7, 1-(1-Ethyl-3-methyl-1H-pyrazol-4-yl)-8-(6-methoxy-pyridin-3-yl)-3-methyl-1,3-dihydro-imidazo[4,5-c]quinolin-2-one] | 3 µg/mL (≈ 7.24 µM) | 19 nM | 28 nM | 38 nM | 62 nM
CCOc1ccc(-c2ccc3ncc4c(c3c2)n(-c2c(C)nn(C)c2C)c(=O)n4C)cn1 [Example 3.3, 8-(6-Ethoxy-pyridin-3-yl)-3-methyl-1-(1,3,5-trimethyl-1H-pyrazol-4-yl)-1,3-dihydro-imidazo[4,5-c]quinolin-2-one] | 104 µg/mL (≈ 243 µM) | 148 nM | 50 nM | 548 nM | 927 nM
CCOc1ccc(-c2ccc3ncc4c(c3c2)n(-c2cn(C(C)C)nc2C)c(=O)n4C)cn1 [Example 3.7, 8-(6-Ethoxy-pyridin-3-yl)-1-(1-isopropyl-3-methyl-1H-pyrazol-4-yl)-3-methyl-1,3-dihydro-imidazo[4,5-c]quinolin-2-one] | 3 µg/mL (≈ 6.78 µM) | 43 nM | 43 nM | 51 nM | 186 nM
CCOc1ccc(-c2ccc3ncc4c(c3c2)n(-c2cn(CC(=O)N(C)C)nc2C)c(=O)n4C)cn1 [Example 3.9, 2-{4-[8-(6-Ethoxy-pyridin-3-yl)-3-methyl-2-oxo-2,3-dihydro-imidazo[4,5-c]quinolin-1-yl]-3-methyl-pyrazol-1-yl}-N,N-dimethyl-acetamide] | 65 µg/mL (≈ 134 µM) | 112 nM | 10 nM | 19 nM | 50 nM
Cc1nn(C)cc1-n1c(=O)n(C)c2cnc3ccc(-c4ccc(N(C)C)nc4)cc3c21 [Example 4.5, 8-(6-Dimethylamino-pyridin-3-yl)-1-(1,3-dimethyl-1H-pyrazol-4-yl)-3-methyl-1,3-dihydro-imidazo[4,5-c]quinolin-2-one] | 7 µg/mL (≈ 16.9 µM) | 17 nM | 22 nM | 17 nM | 38 nM
Cc1cc(-n2c(=O)n(C)c3cnc4ccc(-c5ccc(N(C)C)nc5)cc4c32)n(C)n1 [Example 4.6, 8-(6-Dimethylamino-pyridin-3-yl)-1-(2,5-dimethyl-2H-pyrazol-3-yl)-3-methyl-1,3-dihydro-imidazo[4,5-c]quinolin-2-one] | 6 µg/mL (≈ 14.5 µM) | 91 nM | 30 nM | 72 nM | 205 nM
Cc1nn(C)cc1-n1c(=O)n(C)c2cnc3ccc(-c4ccc(N5CCC5)nc4)cc3c21 [Example 5.1, 8-(6-Azetidin-1-yl-pyridin-3-yl)-1-(1,3-dimethyl-1H-pyrazol-4-yl)-3-methyl-1,3-dihydro-imidazo[4,5-c]quinolin-2-one] | 3 µg/mL (≈ 7.05 µM) | 144 nM | 7 nM | 8 nM | 18 nM
Cc1nn(C)cc1-n1c(=O)n(C)c2cnc3ccc(-c4ccc(C(N)=O)nc4)cc3c21 [Example 14, 5-[1-(1,3-Dimethyl-1H-pyrazol-4-yl)-3-methyl-2-oxo-2,3-dihydro-1H-imidazo[4,5-c]quinolin-8-yl]-pyridine-2-carboxylic acid amide] | 53 µg/mL (≈ 128 µM) | 34 nM | 26 nM | 18 nM | 74 nM
CNC(=O)c1ccc(-c2ccc3ncc4c(c3c2)n(-c2c(C)nn(C)c2C)c(=O)n4C)cn1 [Example 15.2, 5-[3-Methyl-2-oxo-1-(1,3,5-trimethyl-1H-pyrazo1-4-yl)-2,3-dihydro-1H-imidazo[4,5-c]quinolin-8-yl]-pyridine-2-carboxylic acid methylamide] | 71 µg/mL (≈ 161 µM) | 821 nM | 352 nM | 530 nM | 
Cc1nn(C)c(C)c1-n1c(=O)n(C)c2cnc3ccc(-c4ccc(CO)nc4)cc3c21 [Example 16.4, 8-(6-Hydroxymethyl-pyridin-3-yl)-3-methyl-1-(1,3,5-trimethyl-1H-pyrazol-4-yl)-1,3-dihydro-imidazo[4,5-c]quinolin-2-one] | > 414 µg/mL | 161 nM | 234 nM |  | 1510 nM
Cn1cc(-n2c(=O)n(C)c3cnc4ccc(-c5ccc(CO)nc5)cc4c32)c(Cl)n1 [Example 16.5, 1-(3-chloro-1-methyl-1H-pyrazol-4-yl)-8-(6-hydroxymethyl-pyridin-3-yl)-3-methyl-1,3-dihydro-imidazo[4,5-c]quinolin-2-one] | 15 µg/mL (≈ 35.6 µM) | 3 nM | 8 nM | 10 nM | 28 nM
Cn1nccc1-n1c(=O)n(C)c2cnc3ccc(-c4ccc(NCCO)nc4)cc3c21 [Example 21.1, 8-[6-(2-Hydroxy-ethylamino)-pyridin-3-yl]-3-methyl-1-(2-methyl-2H-pyrazol-3-yl)-1,3-dihydro-imidazo[4,5-c]quinolin-2-one] | > 415 µg/mL | 116 nM | 191 nM | 173 nM | 906 nM
Cc1cncc(-c2ccc3ncc4c(c3c2)n(-c2cn(C)nc2C)c(=O)n4C)c1 [Example 24, 1-(1,3-Dimethyl-1H-pyrazol-4-yl)-3-methyl-8-(5-methyl-pyridin-3-yl)-1,3-dihydro-imidazo[4,5-c]quinolin-2-one] | 25 µg/mL (≈ 65 µM) | 41 nM | 78 nM | 124 nM | 170 nM
CCOc1ccc(-c2ccc3ncc4c(c3c2)n(-c2c(C)nn(C)c2C)c(=O)n4C)cc1OCC [Example 27.2, 8-(3,4-Diethoxy-phenyl)-3-methyl-1-(1,3,5-trimethyl-1H-pyrazol-4-yl)-1,3-dihydro-imidazo[4,5-c]quinolin-2-one] | 4 µg/mL (≈ 8.48 µM) | 50 nM | 14 nM | 389 nM | 508 nM
CCOc1ccc(-c2ccc3ncc4c(c3c2)n(-c2cn(CC)nc2C)c(=O)n4C)cc1OC [Example 29.1, 8-(4-Ethoxy-3-methoxy-phenyl)-1-(1-ethyl-3-methyl-1H-pyrazol-4-yl)-3-methyl-1,3-dihydro-imidazo[4,5-c]quinolin-2-one] | 3 µg/mL (≈ 6.56 µM) | 27 nM | 5 nM | 93 nM | 59 nM
Cc1nn(C)cc1-n1c(=O)n(C)c2cnc3ccc(-c4cnc5ccccc5c4)cc3c21 [Example 38, 1-(1,3-Dimethyl-1H-pyrazol-4-yl)-3-methyl-8-quinolin-3-yl-1,3-dihydro-imidazo[4,5-c]quinolin-2-one] | 13 µg/mL (≈ 30.9 µM) | 7 nM | 7 nM | 9 nM | 19 nM
Cc1nn(C)cc1-n1c(=O)n(C)c2cnc3ccc(-c4cccc(S(=O)(=O)N5CCCC5)c4)cc3c21 [Example 44, 1-(1,3-Dimethyl-1H-pyrazol-4-yl)-3-methyl-8-[3-(pyrrolidine-1-sulfonyl)-phenyl]-1,3-dihydro-imidazo[4,5-c]quinolin-2-one] | 8 µg/mL (≈ 15.9 µM) | 28 nM | 41 nM | 42 nM | 134 nM
Cc1nn(C)cc1-n1c(=O)n(C)c2cnc3ccc(-c4ccnc(OC(C)C)c4)cc3c21 [Example 92, 1-(1,3-Dimethyl-1H-pyrazol-4-yl)-8-(2-isopropoxy-pyridin-4-yl)-3-methyl-1,3-dihydro-imidazo[4,5-c]quinolin-2-one] | 7 µg/mL (≈ 16.3 µM) | 127 nM | 244 nM | 715 nM | 
